For assay [1], the system named is untransfected HEK293 cells. The assay is described as follows: Whole-cell patch clamp, untransfected HEK293 cells (control). Format: cell-based. To be noted: 100 μM; data not shown. The procedure: To further confirm the Δ^9-THC effect on TRPV2, whole-cell patch clamp studies were performed. The extracellular solution contained (in mM): NaCl, 132; CaCl, 1.8; KCl, 5.4; MgCl2, 0.8; HEPES, 10; glucose, 10; pH=7.4. The intracellular solution used to fill recording pipettes contained (in mM): CsCl, 145; EGTA, 5; HEPES, 10; glucose, 5; pH=7.4. Recordings were performed using the conventional whole-cell patch clamp technique, 2-3 days after transient transfection of human TRPV2 into HEK293 cell or 1-2 days after plating HEK293 cells stably expressing rat TRPV2 onto glass coverslips. Currents were amplified by a patch clamp amplifier and filtered at 2 kHz (Axopatch 200B), sampled at 10 kHz using Digidata 1322A and acquired and analyzed with pClamp 9.0 (all instruments from Molecular Devices, CA). A 600 ms voltage ramp was given once every five seconds from −100 mV to +60 mV. The holding potential between voltage ramps was −100 mV. Extracellular solutions were applied to the cell at 0.5 ml/min via a gravity-fed perfusion system. All experiments were performed at 22° C.

The next assay concerns the target T1, rat TRPV2 (Rattus norvegicus, UniProt Q9WUD2, A713V/L151P/T158I).
T1 construct: A cDNA fragment encoding the full-length rat TRPV2 was subcloned into pCI-neo; expressed in transfected cells
T1 sequence (Q9WUD2 1-761 L151P/T158I/A713V): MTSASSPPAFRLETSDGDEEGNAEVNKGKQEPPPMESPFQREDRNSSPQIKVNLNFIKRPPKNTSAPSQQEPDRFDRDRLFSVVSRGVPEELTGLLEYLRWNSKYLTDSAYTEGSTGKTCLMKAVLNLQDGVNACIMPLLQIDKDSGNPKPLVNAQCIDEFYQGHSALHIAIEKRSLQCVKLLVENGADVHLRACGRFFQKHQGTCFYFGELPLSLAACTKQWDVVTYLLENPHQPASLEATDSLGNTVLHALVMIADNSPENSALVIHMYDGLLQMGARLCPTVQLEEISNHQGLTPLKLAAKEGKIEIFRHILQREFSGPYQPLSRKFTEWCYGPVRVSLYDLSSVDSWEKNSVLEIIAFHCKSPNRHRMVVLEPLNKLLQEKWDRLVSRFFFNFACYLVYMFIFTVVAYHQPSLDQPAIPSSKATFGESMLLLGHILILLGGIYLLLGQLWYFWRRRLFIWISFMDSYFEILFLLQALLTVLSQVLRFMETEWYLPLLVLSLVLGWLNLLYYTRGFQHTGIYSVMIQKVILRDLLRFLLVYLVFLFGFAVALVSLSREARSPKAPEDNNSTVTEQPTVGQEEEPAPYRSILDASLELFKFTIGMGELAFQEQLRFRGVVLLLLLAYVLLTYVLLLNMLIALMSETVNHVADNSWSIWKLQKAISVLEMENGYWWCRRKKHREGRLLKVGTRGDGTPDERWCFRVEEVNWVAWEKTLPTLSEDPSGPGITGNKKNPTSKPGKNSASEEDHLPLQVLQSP
The assay is described as follows: FLIPR calcium mobilization assay in rat TRPV2-expressing HEK293 cells. Format: cell-based. The procedure: A cDNA fragment encoding the full-length rat TRPV2 was subcloned into pCI-neo (Promega, Madison, Wis.) mammalian expression vector. The expression construct was then transfected into HEK293 cells with FuGene6 transfection reagent (Roche, Indianapolis, Ind.) according to the vendor's protocol. Stable cell lines were selected by growth in the presence of 400 μg/ml G418. Single G418 resistant clones were isolated and purified.
The rat TRPV2-expressing HEK293 cells were seeded in a 384-well plate at a concentration of 5×10^3 cells/well and incubated overnight at 37° C. The following day, the cells were loaded with buffer and calcium dye 3 (Molecular Devices, Sunnyvale, Calif.) in a final volume of 50 μl and incubated for 30 minutes at 37° C./5% CO2 followed by 30 additional minutes at room temperature. The fluorescence intensity was measured by a fluorescent plate reader (FLIPR) before, during and after the addition of test compounds.
All data was normalized to that observed for 100 μM Δ^9-THC.
(In general: A change in cytosolic calcium serves as a functional read-out for many receptors and channels.)

Several values for one entry are separate records, joined by “and”; a condition that tells them apart may be missing. Identical values can stand only once.

One may read the EC50 as the concentration needed to bring the measured effect to its halfway point.

With Delta-9-tetrahydrocannabinol [Δ^9-THC], the “current above control level in untransfected HEK293 cells” value in assay [1] is listed as “no current above control level”. For the same substance, the “elevation of intracellular Ca2+ in rat TRPV2-expressing HEK293 cells” value on rat TRPV2 (100 μM) is reported as “robust elevation of intracellular Ca^2+”. Besides, the “% Response (activation of rat TRPV2)” value at rat TRPV2 (100 μM compound (anandamide 120 μM), normalized to 100 μM Δ^9-THC) is listed as 100%. For the same substance, the “Hill slope of rat TRPV2 activation” value on rat TRPV2 (FLIPR concentration-response, FIG. 4B) was determined as 1.04. For the same substance, the EC50 at rat TRPV2 (FLIPR, rat TRPV2-expressing HEK293 cells, read-out: EC50 (activation of rat TRPV2)) is 15.7 µM and 15.5 µM.

Values taken from US7575882B2, “Compositions and methods for identifying modulators of TRPV2” (Janssen Pharmaceutica N. V., priority 2005, dated 2009).
